Measurements from the supplement of paper PMC10331698.
± gives the standard deviation of the averaged measurements.

Assays:
Test in all cases: level (log10 ratio to DMSO vehicle control); higher = higher biomarker level / cell amount than vehicle control
[1] = compound: O=S(=O)(O)C(F)(F)C(F)(F)OC(F)(F)C(F)(F)F [Perfluoro(2-ethoxyethane)sulfonic acid] (in DMSO)
Procedure: (§1)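 BioMAP Diversity Plus panel of 12 human primary cell co-culture systems (3C, 4H, LPS, SAg, BT, BF4T, BE3C, CASM3C, HDF3CGF, KF3CT, MyoF, Mphg). Compounds were added 1 h before stimulation and left for 24 h (MyoF 48 h; BT 72 h for soluble read-outs or 6 d for IgG). Biomarkers were read by ELISA, cytotoxicity by SRB, PBMC viability and proliferation by Alamar Blue. Each well value was divided by the mean of 8 DMSO control wells on the same plate and log10 transformed; duplicate blinded samples were tested at 4 concentrations.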

[2] = compound: O=C(O)C(F)(OC(F)(F)C(F)(OC(F)(F)C(F)(OC(F)(F)C(F)(F)C(F)(F)F)C(F)(F)F)C(F)(F)F)C(F)(F)F [Perfluoro-(2,5,8-trimethyl-3,6,9-trioxadodecanoic)acid] (in DMSO)
Procedure: as §1

[3] = compound: OCCC(F)(F)C(F)(F)C(F)(F)C(F)(F)F [4:2 Fluorotelomer alcohol] (in DMSO)
Procedure: as §1

Perfluoroundecanoic acid = compound: O=C(O)C(F)(F)C(F)(F)C(F)(F)C(F)(F)C(F)(F)C(F)(F)C(F)(F)C(F)(F)C(F)(F)C(F)(F)F [Perfluoroundecanoic acid] (in DMSO); conditions: 6700 nM
Procedure: as §1

Perfluorononanoic acid = compound: O=C(O)C(F)(F)C(F)(F)C(F)(F)C(F)(F)C(F)(F)C(F)(F)C(F)(F)C(F)(F)F [Perfluorononanoic acid] (in DMSO)
Procedure: as §1

[4] = compound: NS(=O)(=O)C(F)(F)C(F)(F)C(F)(F)C(F)(F)C(F)(F)C(F)(F)C(F)(F)C(F)(F)F [Perfluorooctanesulfonamide] (in DMSO)
Procedure: as §1

[5] = compound: C[C@@H]1C[C@H]2[C@@H]3CCC4=CC(=O)C=C[C@]4(C)[C@@]3(F)[C@@H](O)C[C@]2(C)[C@@]1(O)C(=O)COP(=O)(O)O [Dexamethasone sodium phosphate] (in DMSO)
Procedure: as §1

Test System | level (log10) ([1]; 6700 nM) | level (log10) ([1]; 20000 nM) | level (log10) ([1]; 60000 nM) | level (log10) ([2]; 1100 nM) | level (log10) ([2]; 3300 nM) | level (log10) ([2]; 10000 nM) | level (log10) ([3]; 6700 nM) | level (log10) ([3]; 20000 nM) | level (log10) ([3]; 60000 nM) | level (log10) (Perfluoroundecanoic acid) | level (log10) (Perfluorononanoic acid; 6700 nM) | level (log10) (Perfluorononanoic acid; 20000 nM) | level (log10) ([4]; 6700 nM) | level (log10) ([4]; 20000 nM) | level (log10) ([5]; 1500 nM) | level (log10) ([5]; 4400 nM) | level (log10) ([5]; 13000 nM) | level (log10) ([5]; 40000 nM)
BE3C:CXCL9/MIG | 0.002 ± 0.0042 | -0.0145 ± 0.012 | -0.0055 ± 0.0035 | -0.001 ± 0.0071 | 0.0025 ± 0.0078 | 0.0045 ± 0.015 | -0.0055 ± 0.016 | 0.0065 ± 0.0078 | 0.0025 ± 0.0021 | -0.0125 ± 0.0064 | -0.019 ± 0.013 | -0.0195 ± 0.0021 | -0.0015 ± 0.0021 | 0.013 ± 0.013 | -0.0065 ± 0.019 | 0.003 ± 0.02 | -0.01 ± 0.014 | -0.0085 ± 0.00071
BE3C:CXCL10/IP-10 | -0.008 ± 0.02 | -0.024 ± 0.033 | -0.01 ± 0.0071 | 0.035 ± 0.024 | 0.0325 ± 0.015 | 0.036 ± 0.0071 | -0.009 ± 0.021 | 0.002 ± 0.016 | -0.0015 ± 0.0035 | -0.4655 ± 0.0021 | -0.039 ± 0.025 | -0.145 ± 0.031 | -0.142 ± 0.0078 | -0.414 ± 0.0028 | 0.0215 ± 0.021 | 0.014 ± 0.028 | 0 ± 0.02 | -0.0035 ± 0.016
BE3C:CXCL11/I-TAC | 0.032 ± 0.0057 | 0.076 ± 0.0042 | 0.073 ± 0.0042 | 0.0145 ± 0.0092 | 0.0165 ± 0.013 | 0.014 ± 0.016 | 0.004 ± 0.0014 | 0.0075 ± 0.0078 | 0.0155 ± 0.012 | -0.114 ± 0.047 | -0.01 ± 0.016 | -0.0315 ± 0.044 | -0.0565 ± 0.013 | -0.183 ± 0.06 | 0 ± 0.018 | 0.0145 ± 0.0021 | -0.0175 ± 0.04 | -0.0215 ± 0.0078
BE3C:EGFR | 0 ± 0.0014 | -0.019 ± 0.017 | -0.004 | 0.0085 ± 0.0021 | 0.0035 ± 0.0035 | 0.0185 ± 0.0078 | -0.0165 ± 0.022 | -0.002 ± 0.018 | 0.0315 ± 0.011 | -0.064 ± 0.0014 | -0.023 ± 0.028 | -0.0285 ± 0.03 | -0.0005 ± 0.00071 | -0.044 ± 0.0014 | 0.008 ± 0.042 | -0.0035 ± 0.013 | -0.011 ± 0.0071 | -0.0145 ± 0.005
BE3C:HLA-DR | -0.0085 ± 0.033 | -0.012 ± 0.014 | -0.0335 ± 0.0092 | -0.0055 ± 0.005 | -0.0095 ± 0.0021 | 0.0085 ± 0.0078 | -0.0265 ± 0.052 | -0.0075 ± 0.03 | 0.002 ± 0.0099 | -0.0815 ± 0.022 | -0.039 ± 0.064 | -0.066 ± 0.02 | -0.0975 ± 0.013 | -0.136 ± 0.011 | 0.0175 ± 0.026 | -0.0205 ± 0.033 | 0.0195 ± 0.011 | 0.035 ± 0.017
BE3C:IL-1alpha | 0.0015 ± 0.0021 | 0.0045 ± 0.0035 | 0.0085 ± 0.005 | -0.019 ± 0.0028 | -0.0175 ± 0.035 | 0.004 ± 0.018 | -0.0425 ± 0.026 | -0.0345 ± 0.016 | -0.017 ± 0.0085 | -0.069 ± 0.0042 | -0.032 ± 0.024 | -0.0625 ± 0.023 | -0.005 ± 0.023 | -0.066 ± 0.017 | -0.025 ± 0.0028 | -0.054 ± 0.0028 | -0.0395 ± 0.0092 | -0.0225 ± 0.036
BF4T:CCL2/MCP-1 | 0.0155 ± 0.0064 | 0.0155 ± 0.0064 | 0.0315 ± 0.039 | 0.007 ± 0.028 | 0.0015 ± 0.00071 | -0.004 ± 0.017 | 0.0035 ± 0.073 | -0.0015 ± 0.021 | 0.0275 ± 0.005 | -0.009 ± 0.023 | -0.0115 ± 0.029 | -0.154 ± 0.026 | -0.084 ± 0.0071 | -0.0565 ± 0.018 | -0.0085 ± 0.019 | -0.0165 ± 0.0035 | -0.017 ± 0.0014 | -0.0135 ± 0.018
BF4T:CCL26/Eotaxin-3 | 0.019 ± 0.0014 | -0.0075 ± 0.00071 | 0.039 ± 0.038 | -0.026 ± 0.018 | 0.009 ± 0.025 | 0.034 ± 0.021 | -0.037 ± 0.068 | 0.016 ± 0.073 | 0.001 ± 0.082 | -0.212 ± 0.014 | -0.0345 ± 0.037 | -0.288 ± 0.0085 | -0.117 ± 0.017 | -0.169 ± 0.014 | -0.0755 ± 0.043 | -0.134 ± 0.086 | -0.115 ± 0.012 | -0.122 ± 0.03
BF4T:CD54/ICAM-1 | -0.003 ± 0.0028 | -0.0125 ± 0.0064 | -0.008 ± 0.017 | 0.0025 ± 0.018 | 0.004 ± 0.0042 | 0.004 ± 0.0085 | -0.0055 ± 0.025 | 0.0135 ± 0.03 | -0.003 ± 0.034 | -0.0175 ± 0.026 | -0.0035 ± 0.021 | -0.05 ± 0.014 | -0.029 ± 0.0014 | -0.06 ± 0.045 | -0.003 ± 0.021 | -0.0105 ± 0.011 | -0.0205 ± 0.0021 | -0.0005 ± 0.015
BF4T:CD90 | -0.01 ± 0.0085 | -0.0185 ± 0.0092 | -0.0185 ± 0.0021 | 0.001 ± 0.0042 | 0 ± 0.0028 | 0.0085 ± 0.0035 | -0.0285 ± 0.0078 | -0.0085 ± 0.03 | -0.0125 ± 0.0064 | -0.016 ± 0.0028 | -0.0095 ± 0.0035 | -0.045 ± 0.0028 | -0.0275 ± 0.012 | -0.0585 ± 0.016 | 0.009 ± 0.018 | -0.002 ± 0.023 | -0.005 ± 0.018 | 0.0025 ± 0.015
BF4T:CD106/VCAM-1 | 0.003 ± 0.0057 | 0.0045 ± 0.028 | 0.021 ± 0.055 | -0.027 ± 0.0028 | -0.0185 ± 0.026 | -0.018 ± 0.023 | -0.049 ± 0.083 | 0.022 ± 0.062 | 0.0485 ± 0.083 | -0.032 ± 0.041 | -0.084 ± 0.086 | -0.129 ± 0.035 | -0.052 ± 0.0057 | -0.1125 ± 0.00071 | -0.019 ± 0.011 | -0.013 ± 0.028 | -0.02 ± 0.0085 | -0.049 ± 0.0042
BF4T:CXCL8/IL-8 | 0.008 ± 0.0099 | 0.005 ± 0.024 | 0.0365 ± 0.011 | 0.0365 ± 0.0078 | 0.034 ± 0.024 | 0.034 ± 0.016 | 0.0235 ± 0.039 | 0.035 ± 0.0014 | 0.082 ± 0.0014 | 0.0815 ± 0.026 | 0.048 ± 0.0028 | 0.0165 ± 0.00071 | 0.003 ± 0.0057 | 0.0405 ± 0.013 | -0.0315 ± 0.04 | -0.0495 ± 0.046 | -0.0715 ± 0.033 | -0.0435 ± 0.00071
BF4T:IL-1alpha | -0.0065 ± 0.0078 | -0.016 ± 0.0071 | 0.0165 ± 0.0092 | -0.005 ± 0.0099 | -0.0105 ± 0.00071 | -0.0025 ± 0.0035 | -0.0245 ± 0.028 | 0.004 ± 0.0028 | 0.0055 ± 0.016 | -0.014 ± 0.023 | -0.043 ± 0.0099 | -0.029 ± 0.025 | 0.0095 ± 0.012 | -0.0455 ± 0.022 | 0.0045 ± 0.028 | -0.001 ± 0.013 | -0.0165 ± 0.013 | 0.004 ± 0.023
BF4T:Keratin 8/18 | 0.0015 ± 0.012 | -0.01 ± 0.0028 | 0.023 ± 0.037 | 0.024 ± 0.0099 | 0.0055 ± 0.022 | 0.018 ± 0.0099 | -0.026 ± 0.021 | -0.0185 ± 0.039 | 0.017 ± 0.0028 | 0 ± 0.014 | -0.0155 ± 0.016 | 0.0075 ± 0.023 | -0.0085 ± 0.005 | -0.069 ± 0.023 | 0.011 ± 0.047 | -0.0015 ± 0.013 | -0.0105 ± 0.019 | -0.0025 ± 0.015
